From patent publication US9809623B2, “α4β7 peptide monomer and dimer antagonists” (Protagonist Therapeutics, Inc., priority 2014, dated 2017) come the findings set out here.

One data set deals with T1, rh integrin α4β7 (Homo sapiens, UniProt P13612+P26010).
T1 construct: purchased R&D Systems 5397-A30
In words: α4β7-MAdCAM Competition ELISA. It counts as binding. The following applies: Table 4-B; read-out: ELISA α4β7 IC50. An outline of the steps:
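Competition read-out was A450 after anti-human IgG1-HRP and TMB detection of bound recombinant human MAdCAM-1 (10 nM final). Peptides were serially diluted 3-fold from a final 10 μM and equilibrated 1 h at room temperature on nickel-captured α4β7 (800 ng/well). The buffer was Tris pH 7.6 with 1 mM Mn2+ or Mg2+.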
Background: In an ELISA, binding on a coated surface is turned into a signal by an enzyme label.

Data set [1] in a line: Dithiothreitol (DTT) Redox Stability Assay. It is filed as physicochemical. The following applies: Table 4-C, t1/2, 0.5 mM DTT. The method, boiled down: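 Peptide at 50 μM final in 100 mM Tris-Cl pH 7.5 was exposed to 0.5 mM DTT at room temperature. Aliquots taken at 20, 40, 80 and 120 min were quenched with acetic acid and analysed by reverse-phase HPLC at 220 nm for remaining oxidized parent. Half-lives were obtained by first-order exponential decay fit.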

For the next data set, the target named is α4β7 (Homo sapiens, UniProt P13612+P26010). Kind of data set: PBMC Memory T Cell Adhesion Assay, adhesion to MAdCAM-1. It counts as cell-based. The following applies: Table 4-B; read-out: Cell Adhesion PBMC IC50. An outline of the steps: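 Fresh human CD4+/CD45RO+ memory T cells in binding medium with 1 mM MnCl2 were preincubated with compound for 1.5 h at 37° C. on plates coated with Fc-captured MAdCAM-1 (400 ng/well). Adherent cells were read by fluorescence (Ex 485/Em 530). IC50 came from four-parameter nonlinear regression of RFU versus log concentration.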

Numbered stars: 1 amine (or outer) side, 2 acyl side, 3 side chain; on linkers, the order of the positions; unused ones are H or OH. Bridge positions count the residues as written; N and C are the ends. Square brackets hold non-standard residues; d marks the D form. Peptide text beside a SMILES is read from it. I, II: the chains in the order shown. Phe(4-tBu) = CC(C)(C)c1ccc(C[C@H](N)C(=O)O)cc1; Diglycolyl = O=C(COCC(=O)[*:2])[*:1]; NMeR = CN[C@@H](CCCNC(=N)N)C(=O)O; β3hE = N[C@@H](CCC(=O)O)CC(=O)O; NMeK = CN[C@@H](CCCCN)C(=O)O; Pen = CC(C)(S)[C@H](N)C(=O)O; dNMeK = CN[C@H](CCCCN)C(=O)O

Chain of α4β7 (P13612 34-1032): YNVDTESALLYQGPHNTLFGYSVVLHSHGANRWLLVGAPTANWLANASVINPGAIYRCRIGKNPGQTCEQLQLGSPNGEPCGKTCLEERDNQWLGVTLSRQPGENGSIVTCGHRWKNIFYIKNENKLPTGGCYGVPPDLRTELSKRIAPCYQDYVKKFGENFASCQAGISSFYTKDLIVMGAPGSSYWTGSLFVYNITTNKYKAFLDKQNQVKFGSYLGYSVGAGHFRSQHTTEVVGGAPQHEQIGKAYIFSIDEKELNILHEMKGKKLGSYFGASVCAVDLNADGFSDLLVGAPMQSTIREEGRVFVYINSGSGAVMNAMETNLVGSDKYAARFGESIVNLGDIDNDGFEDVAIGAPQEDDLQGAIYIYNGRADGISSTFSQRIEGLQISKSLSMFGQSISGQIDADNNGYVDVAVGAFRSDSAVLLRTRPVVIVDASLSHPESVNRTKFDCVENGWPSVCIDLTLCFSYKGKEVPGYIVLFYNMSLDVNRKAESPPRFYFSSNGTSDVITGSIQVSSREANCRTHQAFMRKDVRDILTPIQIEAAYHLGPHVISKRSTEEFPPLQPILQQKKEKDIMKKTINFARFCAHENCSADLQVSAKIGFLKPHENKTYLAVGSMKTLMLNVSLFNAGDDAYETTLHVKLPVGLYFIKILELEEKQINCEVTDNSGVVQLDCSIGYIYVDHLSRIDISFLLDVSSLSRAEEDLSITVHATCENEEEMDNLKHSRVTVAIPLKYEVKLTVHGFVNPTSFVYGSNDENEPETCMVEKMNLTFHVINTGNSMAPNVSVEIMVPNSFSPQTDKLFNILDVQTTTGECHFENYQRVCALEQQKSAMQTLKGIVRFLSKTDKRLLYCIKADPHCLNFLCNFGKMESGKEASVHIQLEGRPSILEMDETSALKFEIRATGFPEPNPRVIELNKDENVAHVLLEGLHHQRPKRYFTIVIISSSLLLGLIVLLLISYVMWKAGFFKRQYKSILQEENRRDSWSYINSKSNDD
Chain of α4β7 (P26010 20-798): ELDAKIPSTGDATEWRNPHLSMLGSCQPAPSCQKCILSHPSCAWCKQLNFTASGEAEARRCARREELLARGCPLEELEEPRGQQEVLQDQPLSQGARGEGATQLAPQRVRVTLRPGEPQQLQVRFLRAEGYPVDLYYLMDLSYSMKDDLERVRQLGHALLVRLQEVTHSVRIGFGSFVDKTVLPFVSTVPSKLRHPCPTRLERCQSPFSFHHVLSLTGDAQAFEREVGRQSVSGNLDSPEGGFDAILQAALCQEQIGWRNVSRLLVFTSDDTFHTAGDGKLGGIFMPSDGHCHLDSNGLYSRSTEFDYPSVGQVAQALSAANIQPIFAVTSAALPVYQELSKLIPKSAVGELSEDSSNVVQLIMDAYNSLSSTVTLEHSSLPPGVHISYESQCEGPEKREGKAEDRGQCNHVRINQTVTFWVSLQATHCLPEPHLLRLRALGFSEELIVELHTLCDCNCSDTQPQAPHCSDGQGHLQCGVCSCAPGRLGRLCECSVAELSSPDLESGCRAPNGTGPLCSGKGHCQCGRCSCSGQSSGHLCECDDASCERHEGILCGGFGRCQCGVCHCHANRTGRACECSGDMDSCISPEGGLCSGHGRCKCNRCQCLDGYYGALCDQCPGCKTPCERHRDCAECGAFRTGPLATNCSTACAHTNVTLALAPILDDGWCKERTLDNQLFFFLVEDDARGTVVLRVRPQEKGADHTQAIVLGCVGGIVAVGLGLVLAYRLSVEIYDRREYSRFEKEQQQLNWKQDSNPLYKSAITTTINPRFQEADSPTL
T1 sequence (P13612 34-977 limits assumed): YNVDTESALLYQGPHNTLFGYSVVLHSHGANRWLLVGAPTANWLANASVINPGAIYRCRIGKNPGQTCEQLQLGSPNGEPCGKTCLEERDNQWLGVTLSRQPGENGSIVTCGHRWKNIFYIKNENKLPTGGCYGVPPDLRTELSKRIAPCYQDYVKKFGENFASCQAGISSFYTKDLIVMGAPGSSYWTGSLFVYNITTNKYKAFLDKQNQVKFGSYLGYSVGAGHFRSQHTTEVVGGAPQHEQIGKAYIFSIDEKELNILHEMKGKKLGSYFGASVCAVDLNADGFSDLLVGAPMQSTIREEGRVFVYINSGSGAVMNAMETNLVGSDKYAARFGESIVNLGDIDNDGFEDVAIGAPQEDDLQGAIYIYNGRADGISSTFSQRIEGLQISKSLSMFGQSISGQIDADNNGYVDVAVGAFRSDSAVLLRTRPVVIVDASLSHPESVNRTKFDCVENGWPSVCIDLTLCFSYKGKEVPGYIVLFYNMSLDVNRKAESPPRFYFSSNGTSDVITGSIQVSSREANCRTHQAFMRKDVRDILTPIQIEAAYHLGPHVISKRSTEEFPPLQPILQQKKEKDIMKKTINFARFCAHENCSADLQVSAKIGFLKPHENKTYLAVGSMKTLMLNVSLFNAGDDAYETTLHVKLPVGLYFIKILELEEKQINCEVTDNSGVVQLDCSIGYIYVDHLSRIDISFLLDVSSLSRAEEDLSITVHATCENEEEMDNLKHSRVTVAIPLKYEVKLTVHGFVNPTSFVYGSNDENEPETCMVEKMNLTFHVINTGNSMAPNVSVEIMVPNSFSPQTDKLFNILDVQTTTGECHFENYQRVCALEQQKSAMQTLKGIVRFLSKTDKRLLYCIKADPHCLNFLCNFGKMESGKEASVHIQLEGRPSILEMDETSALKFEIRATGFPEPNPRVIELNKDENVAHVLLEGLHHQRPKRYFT
T1 sequence (P26010 20-723 limits assumed): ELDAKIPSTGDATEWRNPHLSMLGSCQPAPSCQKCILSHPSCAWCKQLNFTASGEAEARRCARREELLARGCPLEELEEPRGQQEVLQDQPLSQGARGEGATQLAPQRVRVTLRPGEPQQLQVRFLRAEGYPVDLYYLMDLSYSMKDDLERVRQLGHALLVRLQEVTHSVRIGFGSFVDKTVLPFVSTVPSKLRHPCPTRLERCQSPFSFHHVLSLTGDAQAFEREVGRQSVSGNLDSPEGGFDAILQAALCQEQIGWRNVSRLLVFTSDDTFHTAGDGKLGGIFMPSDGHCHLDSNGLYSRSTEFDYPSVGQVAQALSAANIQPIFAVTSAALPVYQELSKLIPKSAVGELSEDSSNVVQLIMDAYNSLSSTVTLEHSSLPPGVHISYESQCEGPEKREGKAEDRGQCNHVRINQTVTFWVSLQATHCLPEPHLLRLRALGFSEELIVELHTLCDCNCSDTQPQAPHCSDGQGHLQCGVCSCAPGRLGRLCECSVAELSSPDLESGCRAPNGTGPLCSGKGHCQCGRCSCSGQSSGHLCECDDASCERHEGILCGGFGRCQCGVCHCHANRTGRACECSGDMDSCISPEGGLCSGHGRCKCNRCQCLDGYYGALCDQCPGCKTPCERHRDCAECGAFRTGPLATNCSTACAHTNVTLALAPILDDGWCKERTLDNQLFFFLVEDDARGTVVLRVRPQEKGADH

For orientation: IC50 means the point on the concentration scale where inhibition reaches its midpoint. `CC(=O)N[C@@H]1C(=O)N(C)[C@@H](CCCNC(=N)N)C(=O)N[C@@H](CO)C(=O)N[C@@H](CC(=O)O)C(=O)N[C@@H]([C@@H](C)O)C(=O)N[C@@H](CC(C)C)C(=O)N[C@H](C(=O)N[C@@H](Cc2c[nH]c3ccccc23)C(=O)N[C@@H](CCC(=O)O)C(=O)N(C)[C@H](CCCCNC(=O)COCC(=O)NCCCC[C@H](C(N)=O)N(C)C(=O)[C@H](CCC(=O)O)NC(=O)[C@H](Cc2c[nH]c3ccccc23)NC(=O)[C@H]2NC(=O)[C@H](CC(C)C)NC(=O)[C@H]([C@@H](C)O)NC(=O)[C@H](CC(=O)O)NC(=O)[C@H](CO)NC(=O)[C@H](CCCNC(=N)N)N(C)C(=O)[C@@H](NC(C)=O)C(C)(C)SSC2(C)C)C(N)=O)C(C)(C)SSC1(C)C` [compound 214, [Ac-Pen-(N-Me-Arg)-Ser-Asp-Thr-Leu-Pen-Trp-Glu-(N-Me-D-Lys)-NH2]2-DIG] (I: Ac-[Pen][NMeR]SDTL[Pen]WE[dNMeK]-NH2 / II: Ac-[Pen][NMeR]SDTL[Pen]WE[dNMeK]-NH2; disulfide I:1-I:7, II:1-II:7 (inferred); linker I:10-II:10 via Diglycolyl (inferred)): the IC50 at rh integrin α4β7 came out at 4.1 nM; at α4β7, 24.5 nM. In data set [1], the “DTT Min” value is above 120 min.
As to `CC(=O)N[C@@H]1C(=O)N(C)[C@@H](CCCNC(=N)N)C(=O)N[C@@H](CO)C(=O)N[C@@H](CC(=O)O)C(=O)N[C@@H]([C@@H](C)O)C(=O)N[C@@H](CC(C)C)C(=O)N[C@H](C(=O)N[C@@H](Cc2c[nH]c3ccccc23)C(=O)N[C@@H](CCC(=O)O)C(=O)N(C)[C@@H](CCCCNC(=O)COCC(=O)NCCCC[C@@H](C(N)=O)N(C)C(=O)[C@H](CCC(=O)O)NC(=O)[C@H](Cc2c[nH]c3ccccc23)NC(=O)[C@H]2NC(=O)[C@H](CC(C)C)NC(=O)[C@H]([C@@H](C)O)NC(=O)[C@H](CC(=O)O)NC(=O)[C@H](CO)NC(=O)[C@H](CCCNC(=N)N)N(C)C(=O)[C@@H](NC(C)=O)C(C)(C)SSC2(C)C)C(N)=O)C(C)(C)SSC1(C)C` [compound 215, [Ac-Pen-(N-Me-Arg)-Ser-Asp-Thr-Leu-Pen-Trp-Glu-(N-Me-Lys)-NH2]2-DIG] (I: Ac-[Pen][NMeR]SDTL[Pen]WE[NMeK]-NH2 / II: Ac-[Pen][NMeR]SDTL[Pen]WE[NMeK]-NH2; disulfide I:1-I:7, II:1-II:7 (inferred); linker I:10-II:10 via Diglycolyl (inferred)), the 50% inhibitory concentration (IC50) at rh integrin α4β7 came out at 2.2 nM; at α4β7 it was 16.5 nM. The “DTT Min” value in data set [1] was above 120 min.
In the same order, the values of `CC(=O)N[C@@H]1C(=O)N(C)[C@@H](CCCNC(=N)N)C(=O)N[C@@H](CO)C(=O)N[C@@H](CC(=O)O)C(=O)N[C@@H]([C@@H](C)O)C(=O)N[C@@H](CC(C)C)C(=O)N[C@H](C(=O)N[C@@H](Cc2ccc(C(C)(C)C)cc2)C(=O)N[C@@H](CCC(=O)O)CC(=O)N[C@H](CCCCNC(=O)COCC(=O)NCCCC[C@@H](NC(=O)C[C@H](CCC(=O)O)NC(=O)[C@H](Cc2ccc(C(C)(C)C)cc2)NC(=O)[C@H]2NC(=O)[C@H](CC(C)C)NC(=O)[C@H]([C@@H](C)O)NC(=O)[C@H](CC(=O)O)NC(=O)[C@H](CO)NC(=O)[C@H](CCCNC(=N)N)N(C)C(=O)[C@@H](NC(C)=O)C(C)(C)SSC2(C)C)C(N)=O)C(N)=O)C(C)(C)SSC1(C)C` [compound 218, [Ac-Pen-(N-Me-Arg)-Ser-Asp-Thr-Leu-Pen-Phe(4-tBu)-(β-homoGlu)-(D-Lys)-NH2]2-DIG] (I: Ac-[Pen][NMeR]SDTL[Pen][Phe(4-tBu)][β3hE][dK]-NH2 / II: Ac-[Pen][NMeR]SDTL[Pen][Phe(4-tBu)][β3hE][dK]-NH2; disulfide I:1-I:7, II:1-II:7; linker I:10-II:10 via Diglycolyl) are 2.8 nM, 2 nM and above 120 min.
